Test results from US10118930B2, “Piperidinylpyrazolopyrimidinones and their use” (BAYER PHARMA AKTIENGESELLSCHAFT, priority 2015, dated 2018).
Where a name gives a salt, the structure may show the parent alone.

Tested on: clot lysis (fibrinolysis) in diluted human citrated plasma, tPA-induced
Assay: Plasma-based clot lysis assay (5%)
Type: biochemical
Settings: human citrated platelet-poor plasma 5%, fibrinogen 3 μM, CaCl2 10 mM, tPA 0.2 nM, 37° C., OD at 405 nm
How it was run: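 Clot formation and breakdown triggered by CaCl2 (10 mM final) plus tPA (0.2 nM final) at 37° C, in 5% diluted human plasma supplemented with 3 μM fibrinogen (HEPES/NaCl/Brij buffer, pH 7). IC50 obtained from time courses relative to a blank control.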

Row | Compound | IC50 [nM]
1 | Cc1nn2c(C3CCNCC3)cc(=O)[nH]c2c1C(=O)OCCCF [Example 464, 3-fluoropropyl 2-methyl-5-oxo-7-(piperidin-4-yl)-4,5-dihydropyrazolo[1,5-a]pyrimidine-3-carboxylate hydrochloride] | 130
2 | Cc1nn2c(C3CCNCC3)cc(=O)[nH]c2c1C(=O)OCC(F)F [Example 465, 2,2-difluoroethyl 2-methyl-5-oxo-7-(piperidin-4-yl)-4,5-dihydropyrazolo[1,5-a]pyrimidine-3-carboxylate hydrochloride] | 40

The next lines start with the values.

Row | IC50 [nM] | Compound
3 | 85 | Cc1nn2c(C3CCNCC3)cc(=O)[nH]c2c1C(=O)OCCC(F)(F)F [Example 466, 3,3,3-trifluoropropyl 2-methyl-5-oxo-7-(piperidin-4-yl)-4,5-dihydropyrazolo[1,5-a]pyrimidine-3-carboxylate hydrochloride]
4 | 39 | Cc1nn2c(C3CCNCC3)cc(=O)[nH]c2c1C(=O)OC(C)(C)C [Example 468, Tert-butyl 2-methyl-5-oxo-7-(piperidin-4-yl)-4,5-dihydropyrazolo[1,5-a]pyrimidine-3-carboxylate hydrochloride]
5 | 160 | CSc1nn2c(C3CCNCC3)cc(=O)[nH]c2c1C(=O)O [Example 469, 2-(methylsulfanyl)-5-oxo-7-(piperidin-4-yl)-4,5-dihydropyrazolo[1,5-a]pyrimidine-3-carboxylic acid hydrochloride]
